Experimental data: publication PMC10644720 (Frontiers in Pharmacology, 2023)

Assays:
[1] = test system: GPVI signaling; assay: Western blot of ITAM and MAPK signaling molecules; assay type: cell-based, human; settings: convulxin-induced
Method: A lysis buffer (5x, PBS, PH7.4, comprising 2.5% sodium dodecyl sulfate [SDS], 5% deoxycholate, 5% vol/vol Triton X-100, phosphatase and proteinase inhibitors cocktails) was used to lyse the cells on ice for 30 min. The platelet lysate was centrifuged at 12,000 rpm for 10 min at 4°C. The supernatant was added to 5× protein loading buffer and boiled. The proteins were separated by 10% SDS-PAGE gels and transferred to membranes. The PVDF membranes were blocked in EveryBlot Blocking buffer (Cat No. 12010020; Bio-Rad, Hercules, CA, United States) for 10 min. […] The intensity of the target bands was assessed by ImageJ software.

[2] = test system: pulmonary thrombosis; assay: Collagen-epinephrine-induced acute pulmonary embolism model and plasma oxidative markers; assay type: in vivo, C57BL/6 mice; settings: luteolin 35 μM/kg
Method: The acute pulmonary embolism model in mice was similar to the previously reported literature with slight modifications ([Pan et al., 2021]). […] after a retro-orbital sinus injection of collagen (100 μg/kg)-epinephrine (300 μg/kg), the mice were anesthetized by pentobarbital (45 mg/kg, i.p.). Whole blood obtained from the eyes was anticoagulated with EDTA·2Na. Whole blood was centrifuged at 3,000 rpm for 10 min to get plasma. Measurement of MDA and SOD in plasma followed the manufacturer’s protocols. Mice were sacrificed by cervical dislocation. The lung tissue was taken and fixed in 4% paraformaldehyde overnight. Lung and sternum tissues were fixed in 4% paraformaldehyde, embedded in paraffin, and sectioned into 5-μm sections. After dewaxing and washing, the slices were incubated overnight at 4°C for immunostaining with anti-mouse CD41 antibody (Cat No. GTX113758, GeneTex Inc., Irvine, CA, United States) 0.63 μg/mL or with anti-mouse CD42b antibody (Cat No. 12860-1-AP; Proteintech Group Inc., Chicago, IL, United States) 1 μg/mL or an equivalent concentration of polyclonal non-immune IgG (Cat No. GTX213110-01; GeneTex) as control. The sections were washed three times and incubated for 50 min at room temperature with secondary antibodies. The nuclei were counterstained using hematoxylin. The tissues were observed using 3,3′-Diaminobenzidine tetrahydrochloride.

[3] = test system: thrombosis and infarct area; set-up: method as in Liu et al., 2022; settings: rats; gavage for 7 days at 20 mg/kg/day; ref Liu et al., 2022; cited from earlier work
[4] = set-up: method as in Cheurfa et al., 2019; settings: diet-induced obese mice; 200 mg/kg/d; ref Cheurfa et al., 2019; cited from earlier work
[5] = Coagulation function in mice; assay type: in vivo, C57BL/6 mice; settings: 30 min after administration
Method: Then, 30 min after administration, blood was removed from the eyes and anticoagulated with 3.8% sodium citrate. The plasma was obtained by centrifugation at 3,000 rpm for 10 min at room temperature, and coagulation-related indexes were measured using an STA Compact Max (Diagnostica Stago, Inc. Asnières-sur-Seine, France).

[6] = test system: human platelets; settings: cited from earlier work
[7] = test system: human washed platelets; assay: Platelet superoxide anion and H2O2 release (DHE, Amplex Red); assay type: cell-based; settings: convulxin 5 ng/mL; luteolin 25 μM
Method: A ROS probe via a fluorescent enzyme marker was added. O2 ^− and H2O2 were measured using 2 μM Amplex Red (Cat No. ST010; Beyotime Institute of Biotechnology, Shanghai, China) or 2 μM Dihydroethidium (DHE, Cat No. S0063; Beyotime Institute of Biotechnology, Shanghai, China). O2 ^− and H2O2 were analyzed using a Fluoroskan Ascent fluorometer (Thermo Fisher, Waltham, Massachusetts, United States).

[8] = Tail bleeding in mice; assay type: in vivo, C57BL/6 mice; settings: luteolin 35 μM/kg or aspirin i.p., 30 min after injection; vs DMSO
Method: The tail break hemorrhage experiment in mice was performed as previously reported, with slight modifications ([Liu et al., 2012]). […] Before the experiment, the mouse tails were immersed in saline for 3 min at 37°C. Then, 30 min after injection, the tails were quickly cut off using a surgical knife blade and placed in saline at 37°C. The cutting site was 5 mm from the end of the tail tip. The bleeding time of the broken tails was observed and recorded.

Structure (SMILES): O=c1cc(-c2ccc(O)c(O)c2)oc2cc(O)cc(O)c12 [Luteolin]
- phosphorylation of MAPK and ITAM ([1]; Erk 1/2, SAPK/JNK, p38 MAPK): significant inhibitory effect
- phosphorylation of Src, Syk, PLCγ2, Akt and GSK-3β ([1]; non-aggregating conditions): inhibited
- area and size of thrombus formation in lungs ([2]; 30 min before collagen-epinephrine): significantly attenuated
- MDA levels in plasma ([2]; mice with pulmonary embolism): significantly decreased
- SOD activity in plasma ([2]; mice with pulmonary embolism): increased
- thrombosis and infarct area [3]: significantly reduce
- low-density lipoprotein content [4]: significantly reduced
- activated partial thromboplastin time (APTT) [5]: no significant effects
- plasma concentration of fibrinogen [5]: no significant effects
- prothrombin time (PT) [5]: no significant effects
- thrombin time (TT) [5]: no significant effects
- IC50 ([6]; 2 μM U46619, ref Guerrero et al., 2005, read-out: IC50, inhibition of U46619-induced platelet aggregation): 47 ± 13.3 µM
- ADP induced platelet aggregation ([6]; 25–100 μM luteolin, 1 h incubation, ref Lu et al., 2021): inhibited
- collagen, U46619, and ADP-induced activation in human platelets ([6]; ref Guerrero et al., 2005, Guerrero et al., 2007, Lu et al., 2021): significantly inhibits
- platelet hydrogen peroxide release [7]: inhibited
- platelet superoxide anion release [7]: inhibited
- tail bleeding time [8]: no significant prolonging effect
